Laboratory results published in patent US20260266804A1, “MODEL FOR ANALYZING INFLAMMATION AND USES THEREOF” (Technion Research & Development Foundation Limited, priority 2022, published 2026).
“Also recorded” adds a separate entry of the source.

What was measured:
[1] = system: Caco2 cells; experiment: SNAP treatment of 55Fe labeled Caco2 cells, CPM in cells and medium; type: cell-based, human; conditions: SNAP induced Caco2 cells
Experimental: (§1) Day before SNAP (Sigma) treatment, Caco2 cells were cultured in working medium with MEM (Sigma) supplemented with 20% heat inactivated FCS (Biological Industries), ferric ammonium citrate (Sigma), non-essential amino acids (Gibco), sodium pyruvate (Gibco), L-glutamine (Biological Industries) and Pen.-strep. (Biological Industries) in an oxygen modified incubator (6% O2) at 37° C. and 5% CO2.
(§2) SNAP was added to the cells for 22 hours in two sequential doses 1 mM each. First dose was added for 6 hours, 20% of the medium was then collected and replaced with working medium containing 5 mM SNAP for additional incubation of […].
Cells were given medium containing transferrin loaded with labeled iron. First labeled Ferric nitrilotriacetate (Fe-(NTA)2) was prepared, by mixing 5 parts of […] (pH=3) in 0.9% NaCl, with 4 parts of 100 mM of ferric chloride solution (FeCl3) in 0.1M HCl and one part of ^55Fe labeled ferric chloride solution (^55FeCl3). The mixture was incubated for 30 minutes at RT. Next, 125 parts of 1 mM human Apotransferrin (Kamada) solution in HBS was mixed with 12.5 parts of NaHCO3 and 10 parts of the labeled Ferric nitrilotriacetate (50 mM). The mixture was then added to the growth medium, 147.5 ul of labeled transferrin was added to 2 ml of growth medium. Cells were labeled with ^55Fe for ON. Then the medium was removed and cells were washed with PBS. […]

[2] = system: Caco-2 cells; experiment: SNAP treatment of Caco2 cells, IL-8 mRNA by qRT-PCR; type: cell-based, human; conditions: SNAP two sequential doses, 22 hours
Experimental: as §1, §2
(§3) RNA was extracted using the Trizol reagent (Invitrogen). Cells were harvested directly with Trizol, whereas tissues were first ground in liquid-N2 cooled mortars then incubated with Trizol following manufacturer's instructions. Isolated RNA samples were submitted to DNase treatment using DNase I recombinant, RNase-free kit (Roche). cDNA was prepared using cDNA Reverse Transcription Kit (Quanta biosciences), and the RT-PCRs were performed using SYBR master mix (Applied Biosystems). The delta Ct method was used to calculate a relative expression of the target gene in comparison to topoisomerase 1 for epithelial cells and ubiquitin for macrophage genes.

[3] = system: aconitase (IRP1 activation); experiment: Tempol in ECs-Raw 264.7 co-culture, aconitase in-gel activity; type: cell-based; conditions: Tempol 3 mM, direct correlation with incubation time
Experimental: (§4) Day before co-culture assembly Caco2 cells were cultivated in an oxygen modified incubator (6% O2). Confluent co-cultures of epithelial cells and macrophages were obtained by seeding 2×10^5 cells per cm^2 surface area. Cell culture dishes employed were 10 cm or 6 well. For Caco2-Raw 264.7 co-cultures, Caco2 cells were seeded, after adherence Raw264.7 cells were added accordingly. For Caco2-BMDM co-cultures, on the six day of bone marrow extraction the cells were plated as previously mentioned, and Caco2 cells were added to them accordingly. Co-cultures were cultivated in an oxygen modified incubator (6% O2) at 37° C. and 5% CO2. Co-culture ratios used were 1:1 or 2:1 or 1:2.
Mitochondrial and cytosolic aconitase activities were assayed in parallel in cell lysates after electrophoretic separation as previously described [Tong et al. Cell metabolism 3, 199-210 (2006)]. Protein concentrations were determined using the Bradford assay (BIO-RAD, Hercules, California). Aconitase activity was detected chromogenically by incubating the gels in 100 mM Tris pH 8, 1 mM NADP, 2.5 mM cis-aconitic acid, 1.2 mM 3-(4,5-dimethylthiazol-2-yl)-2,5-diphenyl tetrazolium bromide, 0.3 mM phenazine methosulfate, 5 mM MgCl2 and 5 Units/ml isocitrate dehydrogenase. All chemicals were purchased from Sigma Missouri.

[4] = system: ECs-Raw 264.7 co-culture; experiment: Tempol in ECs-Raw 264.7 co-culture, pro-inflammatory markers by RTqPCR; type: cell-based, human and mouse; conditions: Tempol 3 mM alone, different times, no LPS
Experimental: as §4, §3

[5] = system: epithelial pro-inflammatory markers (Caco2 cells); experiment: Pre-conditioning of Caco2 cells with tempol, then Raw 264.7 cells and LPS, qRT-PCR; type: cell-based, human; conditions: tempol 3 mM 16 hours pre-conditioning, then Raw 264.7 and LPS 6 hours
Experimental: Representative SDS-PAGE gels of subcellular fractions, cytosolic nuclear soluble and nuclear chromatic bound fractions (upper). Protein levels were quantified with Image J (lower), values presented as mean±SD. n=4. * DFO 100 Um for 24 hours. C-E. Co-culture of epithelial cells and macrophages with targeted deletion of IRP1 (MΦ Irp1^−/−) didn't restore iron homeostasis in the co-culture upon LPS stimulation. Epithelial cells were co-cultured with BMDM isolated from C57BL/6 mice (MΦ wt) or from IRP^−/− on C57BL/6 background mice (MΦ Irp1^−/−) as described. LPS 200 ng/ml was added for 24 hours. […] Representative immunoblot of FtH. n=8. […] Representative blot of IRP2. n=8. E. Aconitase activities were decreased in epithelial cells and macrophages in EC-MΦ wt and EC-MΦ Irp1^−/− co-cultures. Representative aconitase in-gel assay. n=4. […] Caco2 cells were cultured with tempol (3 mM) for 16 hours, cells were then washed, and Raw 264.7 cells were added. When Raw 264.7 cells were adhered, the excess of cells was washed away and LPS was added for 6 hours. Expression levels were measured by qRT-PCR. n=6.
RNA was extracted using the Trizol reagent (Invitrogen). Cells were harvested directly with Trizol, whereas tissues were first ground in liquid-N2 cooled mortars then incubated with Trizol following manufacturer's instructions. […]

CC(=O)N[C@H](C(=O)O)C(C)(C)SN=O (racemic) [SNAP, S-Nitroso-N-Acetylpenicillamine]
intracellular iron ([1]; 55Fe CPM in the cells): reduced | extracellular iron ([1]; 55Fe CPM in the medium): increased | IL-8 mRNA expression levels / inflammatory response in Caco-2 cells alone [2]: showed an inflammatory response; also recorded: elevated

CC1(C)CC(O)CC(C)(C)N1[O] [tempol]
aconitase activities [3]: decreased | transcription levels of pro-inflammatory markers / inflammatory response [4]: did not elicit any inflammatory response; also recorded: increased trend that was not statistically significant | expression levels of selected epithelial pro-inflammatory markers [5]: significantly increased
